Assay results as given in patent US10375956B2, “Herbicidally active 2-(substituted-phenyl)-cyclopentane-1,3-dione compounds and derivatives thereof” (Syngenta Limited, priority 2013, dated 2019).

Key:
Format in all cases: in vivo
[1] = test system: Abutilon theophrasti (ABUTH); experiment: Test 1 glasshouse assay, pre-emergence herbicidal activity; details: 312 h, visual evaluation after 13 days, read-out: Percentage phytotoxicity ABUTH
Method in brief: (§1)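 Seeds sown in standard soil were sprayed one day after sowing with active ingredient in acetone/water (50:50) plus 0.5% Tween 20. Plants grew in a glasshouse at 24/16° C day/night, 14 h light, 65% humidity, watered twice daily; phytotoxicity was scored visually after 13 days (0–100%).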

[2] = test system: Alopecurus myosuroides (ALOMY); experiment: as above; details: 312 h, visual evaluation after 13 days, read-out: Percentage phytotoxicity ALOMY
Method in brief: as §1

[3] = test system: Setaria faberi (SETFA); experiment: as above; details: 312 h, visual evaluation after 13 days, read-out: Percentage phytotoxicity SETFA
Method in brief: as §1

[4] = test system: Zea mays (ZEAMX, corn/maize); experiment: as above; details: 312 h, visual evaluation after 13 days, read-out: Percentage phytotoxicity ZEAMX
Method in brief: as §1

[5] = test system: Brachiaria plantaginea (BRAPL); experiment: Test 2 glasshouse assay (IF50 formulation, X-77), pre-emergence herbicidal activity; details: Urochloa plantaginea, 480 h, 250 g/ha, 20DAA, read-out: Percentage phytotoxicity BRAPL
Method: (§2) Seeds of a variety of monocotyledonous and dicotyledonous test plants are sown in standard soil in pots. The plants are cultivated for one day (for pre-emergence) or for about 12 days (for post-emergence) under controlled conditions in a glasshouse (warm climate species at 24/18° C., cool climate species at 20/16° C., both at day/night; 16 hours light; 65% humidity).
(§3) An “instant formulation”, known as the “IF50”, containing 50 g/liter (i.e. 5% w/v) of the “technical” (i.e. unformulated) active ingredient is prepared by dissolving the active ingredient in a mixture of organic solvents and emulsifier, details of which are provided in the Table below. This IF50 is then mixed with a small, variable amount of acetone to aid dissolution, before addition of a 0.2% v/v aqueous solution of the adjuvant X-77 (which is a mixture of alkyl aryl polyoxyethylene glycols and free fatty acids in isopropanol, CAS Registry number 11097-66-8), as the aqueous diluent, to form an aqueous spray solution which contains a predetermined concentration of the active ingredient (which varies depending on the application rate of the active ingredient to the plants) and 0.2% v/v of the adjuvant X-77. This aqueous spray solution is then sprayed onto the plants, after one day's cultivation (for pre-emergence), or after about 12 days' cultivation (range=10-13 days) (for post-emergence).
(§4) The test plants are then grown on, in a glasshouse (greenhouse) under controlled conditions (warm climate species at 24/18° C., cool climate species at 20/16° C., both at day/night; 16 hours light; 65% humidity) and are watered twice daily. 15 days after application of the test herbicide (15DAA) (for post-emergence), and 20 days after application of the test herbicide (20DAA) (for pre-emergence), the test plants are evaluated visually, and an assessed percentage phytotoxicity score is given for each herbicidal application on each plant species (with 100%=total damage to plant; 0%=no damage to plant).
(§5) Warm climate (“warm season”) grassy monocotyledonous weeds: Setaria faberi (SETFA), Panicum miliaceum (PANMI), Sorghum vulgare Pers. (SORVU) (or Sorghum bicolor (L) Moench ssp. Bicolor), Digitaria sanguinalis (DIGSA), Echinochloa crus-galli (ECHCG), and Brachiaria plantaginea (BRAPL).

[6] = test system: Digitaria sanguinalis (DIGSA); experiment: as above; details: 480 h, 250 g/ha, 20DAA, read-out: Percentage phytotoxicity DIGSA
Method: as §2, §3, §4, §5

[7] = test system: Echinochloa crus-galli (ECHCG); experiment: as above; details: 480 h, 250 g/ha, 20DAA, read-out: Percentage phytotoxicity ECHCG
Method: as §2, §3, §4, §5

[8] = test system: Panicum miliaceum (PANMI); experiment: as above; details: 480 h, 250 g/ha, 20DAA, read-out: Percentage phytotoxicity PANMI
Method: as §2, §3, §4, §5

[9] = test system: Setaria faberi (SETFA); experiment: as above; details: 480 h, 250 g/ha, 20DAA, read-out: Percentage phytotoxicity SETFA
Method: as §2, §3, §4, §5

[10] = test system: Sorghum vulgare Pers. (SORVU); experiment: as above; details: Sorghum bicolor, 480 h, 250 g/ha, 20DAA, read-out: Percentage phytotoxicity SORVU
Method: as §2, §3, §4, §5

[11] = test system: Triticum aestivum (TRZAW, winter wheat); experiment: Test 2 glasshouse assay (IF50 formulation, X-77), post-emergence herbicidal activity; details: 360 h, 15 DAA, visual score, read-out: Post-emergence herbicidal activity (percentage phytotoxicity) TRZAW; for plant injury at 30 g/ha: application rate 30 g/ha; for plant injury at 250 g/ha: application rate 250 g/ha; for plant injury at 125 g/ha: application rate 125 g/ha
Method in brief: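 Plants grown ~12 days (range 10-13) in glasshouse (cool species 20/16° C., warm 24/18° C. day/night; 16 h light; 65% humidity), then sprayed post-emergence with IF50 formulation in aqueous 0.2% v/v X-77. Visual percentage phytotoxicity scored 15 days after application (100% = total damage, 0% = none).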

[12] = test system: Alopecurus myosuroides (ALOMY); experiment: as above; details: 360 h, 15 DAA, visual score, read-out: Post-emergence herbicidal activity (percentage phytotoxicity) ALOMY; for pest or weed control at 30 g/ha: application rate 30 g/ha; for pest or weed control at 250 g/ha: application rate 250 g/ha; for pest or weed control at 125 g/ha: application rate 125 g/ha
Method: as §2, §3, §4
(§6) Cool climate (“cool season”) grassy monocotyledonous weeds: Alopecurus myosuroides (ALOMY), Avena fatua (AVEFA), Lolium perenne (LOLPE).

[13] = test system: Avena fatua (AVEFA); experiment: as above; details: 360 h, 15 DAA, visual score, read-out: Post-emergence herbicidal activity (percentage phytotoxicity) AVEFA; for pest or weed control at 30 g/ha: application rate 30 g/ha; for pest or weed control at 250 g/ha: application rate 250 g/ha; for pest or weed control at 125 g/ha: application rate 125 g/ha
Method: as §2, §3, §4, §6

[14] = test system: Lolium perenne (LOLPE); experiment: as above; details: 360 h, 15 DAA, visual score, read-out: Post-emergence herbicidal activity (percentage phytotoxicity) LOLPE; for pest or weed control at 30 g/ha: application rate 30 g/ha; for pest or weed control at 250 g/ha: application rate 250 g/ha; for pest or weed control at 125 g/ha: application rate 125 g/ha
Method: as §2, §3, §4, §6

Row | SMILES | pest or weed control at 250 g/ha [1] [%] | pest or weed control at 250 g/ha [2] [%] | pest or weed control at 250 g/ha [3] [%] | pest or weed control at 250 g/ha [4] [%] | pest or weed control at 250 g/ha [5] [%] | pest or weed control at 250 g/ha [6] [%] | pest or weed control at 250 g/ha [7] [%] | pest or weed control at 250 g/ha [8] [%] | pest or weed control at 250 g/ha [9] [%] | pest or weed control at 250 g/ha [10] [%] | plant injury at 30 g/ha [11] [%] | plant injury at 250 g/ha [11] [%] | pest or weed control at 30 g/ha [12] [%] | pest or weed control at 250 g/ha [12] [%] | pest or weed control at 30 g/ha [13] [%] | pest or weed control at 250 g/ha [13] [%] | pest or weed control at 30 g/ha [14] [%] | pest or weed control at 250 g/ha [14] [%] | plant injury at 125 g/ha [11] [%] | pest or weed control at 125 g/ha [12] [%] | further results
1 | C#CCC1CC(=O)C(c2c(Cl)cc(-c3ccc(Cl)cc3)cc2OC)C1=O (centres unmarked) [Compound A11, 2-[2-chloro-4-(4-chlorophenyl)-6-methoxyphenyl]-4-prop-2-ynylcyclopentane-1,3-dione] | 40 | 100 | 100 | 100 | 100 | 90 | 70 | 60 | 90 | 80 | 60 | 90 | 30 | 70 | 20 | 70 | 30 | 40 | – | – | –
2 | C#CCC1CC(=O)C(c2c(Cl)cc(-c3ccc(F)cc3)cc2OC)C1=O (centres unmarked) [Compound A7] | 0 | 90 | 100 | 100 | 90 | 100 | 90 | 100 | 90 | 90 | 50 | 90 | 10 | 100 | 20 | 100 | 30 | 80 | – | – | –
3 | C#CCC1CC(=O)C(c2c(F)cc(-c3ccc(Cl)cc3)cc2OC)C1=O (centres unmarked) [Compound A14] | 20 | 100 | 100 | 100 | 100 | 100 | 80 | 100 | 100 | 90 | – | – | – | – | – | – | – | – | 40 | 60 | pest or weed control at 125 g/ha [13]: 40%; pest or weed control at 125 g/ha [14]: 20%
4 | C#CCC1CC(=O)C(c2c(C)cc(-c3ncc(Cl)cc3F)cc2C)C1=O (centres unmarked) [Compound A3] | 20 | 100 | 100 | 100 | 90 | 90 | 80 | 80 | 80 | 80 | 80 | 90 | 80 | 100 | 40 | 100 | 30 | 90 | – | – | –
5 | C#CCC1CC(=O)C(c2c(C)cc(-c3ccc(Cl)cn3)cc2C)C1=O (centres unmarked) [Compound A2] | 50 | 90 | 100 | 100 | 80 | 70 | 80 | 100 | 90 | 80 | 70 | 90 | 20 | 100 | 60 | 90 | 30 | 90 | – | – | –
6 | C#CCC1CC(=O)C(c2c(F)cc(-c3ccc(F)c(F)c3)cc2OC)C1=O (centres unmarked) [Compound A22] | 0 | 80 | 90 | 100 | 90 | 90 | 70 | 80 | 90 | 70 | 20 | – | 50 | – | 0 | – | 10 | – | 70 | 70 | pest or weed control at 125 g/ha [13]: 70%; pest or weed control at 125 g/ha [14]: 50%
